Data: patent US12594276B2, “Inhibitors of human immunodeficiency virus replication” (ViiV Healthcare UK (No.5) Limited, priority 2024, dated 2026)

What was measured:
[1] = test system: recombinant NL4-3 virus (nef section replaced with Renilla luciferase gene) in MT-2 cells; test: HIV cell culture assay (antiviral activity, luciferase readout); type: cell-based; settings: Renilla, NL43, MT-2 cells infected for 4-5 days with recombinant NL4-3 Renilla luciferase virus
How it was run: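 Read-out: Renilla luciferase (live-cell substrate) in infected MT-2 cells after 4-5 d with serial compound dilutions. Virus from 293T transfection of the proviral clone, titered by luciferase in MT-2. EC50 via median effect equation fit.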

[2] = Compound cytotoxicity, XTT-based colorimetric assay; type: cell-based; settings: human; uninfected MT2 cells, day 4, XTT; read-out: CC50
How it was run: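 Uninfected MT2 cells, antiviral-assay protocol without virus; XTT colorimetric readout day 4; CC50 reported.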

| SMILES | EC50 [1] [nM] | CC50 at 4 days [2] [nM] |
| --- | --- | --- |
| COCCNc1cc(C2CCC(F)(F)CC2)nc2nc([C@H](Cc3cc(F)cc(F)c3)NC(=O)Cn3nc(C(F)F)c4c3C(F)(F)[C@@H]3C[C@H]43)n(-c3ccc(Cl)c4c(NS(C)(=O)=O)nn(CCN5CCC(F)(F)CC5)c34)c(=O)c12 (atropisomer, axis not shown; (P)) [Example 413, N-[(1S)-1-[(3P)-3-{4-chloro-1-[2-(4,4-difluoropiperidin-1-yl)ethyl]-3-methanesulfonamido-1H-indazol-7-yl}-7-(4,4-difluorocyclohexyl)-5-[(2-methoxyethyl)amino]-4-oxo-3H,4H-pyrido[2,3-d]pyrimidin-2-yl]-2-(3,5-difluorophenyl)ethyl]-2-[(2S,4R)-9-(difluoromethyl)-5,5-difluoro-7,8-diazatricyclo[4.3.0.0^2,^4]nona-1(6),8-dien-7-yl]acetamide] | 0.013 | > 20 |
| Cc1cc(C2CCC(F)(F)CC2)nc2nc([C@H](Cc3cc(F)cc(F)c3)NC(=O)Cn3nc(C4CC4)c4c3C[C@@H]3C[C@H]43)n(-c3ccc(Cl)c4c(NS(C)(=O)=O)nn(CCN5C[C@@H]6C[C@H]5CC6(F)F)c34)c(=O)c12 (atropisomer, axis not shown; (P)) [Example 311, N-[(1S)-1-[(3P)-3-(4-chloro-1-{2-[(1S,4S)-5,5-difluoro-2-azabicyclo[2.2.1]heptan-2-yl]ethyl}-3-methanesulfonamido-1H-indazol-7-yl)-7-(4,4-difluorocyclohexyl)-5-methyl-4-oxo-3H,4H-pyrido[2,3-d]pyrimidin-2-yl]-2-(3,5-difluorophenyl)ethyl]-2-[(2S,4S)-9-cyclopropyl-7,8-diazatricyclo[4.3.0.0^2,^4]nona-1(6),8-dien-7-yl]acetamide] | 0.013 | > 50 |
| COCCCn1nc(NS(C)(=O)=O)c2c(Cl)ccc(-n3c([C@H](Cc4cc(F)cc(F)c4)NC(=O)Cn4nc(C(F)F)c5c4C(F)(F)[C@@H]4C[C@H]54)nc4nc(C5CCC(F)(F)CC5)cc(NCCN5CCC6(CC5)CC6)c4c3=O)c21 (atropisomer, axis not shown; (P)) [Example 515, N-[(1S)-1-[(3P)-5-[(2-{6-azaspiro[2.5]octan-6-yl}ethyl)amino]-3-[4-chloro-3-methanesulfonamido-1-(3-methoxypropyl)-1H-indazol-7-yl]-7-(4,4-difluorocyclohexyl)-4-oxo-3H,4H-pyrido[2,3-d]pyrimidin-2-yl]-2-(3,5-difluorophenyl)ethyl]-2-[(2S,4R)-9-(difluoromethyl)-5,5-difluoro-7,8-diazatricyclo[4.3.0.0^2,^4]nona-1(6),8-dien-7-yl]acetamide] | 0.016 | > 20 |
| COCCCn1nc(NS(C)(=O)=O)c2c(Cl)ccc(-n3c([C@H](Cc4cc(F)cc(F)c4)NC(=O)Cn4nc(C(F)F)c5c4C[C@@H]4C[C@H]54)nc4nc(C5CCC(F)(F)CC5)cc(C)c4c3=O)c21 (atropisomer, axis not shown; (P)) [Example 86, N-[(1S)-1-[(3P)-3-[4-chloro-3-methanesulfonamido-1-(3-methoxypropyl)-1H-indazol-7-yl]-7-(4,4-difluorocyclohexyl)-5-methyl-4-oxo-3H,4H-pyrido[2,3-d]pyrimidin-2-yl]-2-(3,5-difluorophenyl)ethyl]-2-[(2S,4S)-9-(difluoromethyl)-7,8-diazatricyclo[4.3.0.0^2,^4]nona-1(6),8-dien-7-yl]acetamide] | 0.011 | > 50 |
| CS(=O)(=O)Nc1nn(CCN2CCC(F)(F)CC2)c2c(-n3c([C@H](Cc4cc(F)cc(F)c4)NC(=O)Cn4nc(C(F)F)c5c4C(F)(F)[C@@H]4C[C@H]54)nc4nc(C5CCC(F)(F)CC5)cc(C5CC5)c4c3=O)ccc(Cl)c12 (atropisomer, axis not shown; (P)) [Example 321, N-[(1S)-1-[(3P)-3-{4-chloro-1-[2-(4,4-difluoropiperidin-1-yl)ethyl]-3-methanesulfonamido-1H-indazol-7-yl}-5-cyclopropyl-7-(4,4-difluorocyclohexyl)-4-oxo-3H,4H-pyrido[2,3-d]pyrimidin-2-yl]-2-(3,5-difluorophenyl)ethyl]-2-[(2S,4R)-9-(difluoromethyl)-5,5-difluoro-7,8-diazatricyclo[4.3.0.0^2,^4]nona-1(6),8-dien-7-yl]acetamide] | 0.02 | > 50 |
| CC1(C)CN(CCn2nc(NS(C)(=O)=O)c3c(Cl)ccc(-n4c([C@H](Cc5cc(F)cc(F)c5)NC(=O)Cn5nc(C(F)F)c6c5C(F)(F)[C@@H]5C[C@H]65)nc5nc(C6CCC(F)(F)CC6)ccc5c4=O)c32)CC(C(F)(F)F)O1 (some centres unmarked) [Example 189] | 0.035 | > 50 |
| Cc1cc(C2(F)CCC(F)(F)CC2)nc2nc([C@H](Cc3cc(F)cc(F)c3)NC(=O)Cn3nc(C4CC4)c4c3C[C@@H]3C[C@H]43)n(-c3ccc(Cl)c4c(NS(C)(=O)=O)nn(CCN5C[C@@H](C)O[C@@H](C)C5)c34)c(=O)c12 (atropisomer, axis not shown; (P)) [Example 503, N-[(1S)-1-[(3P)-3-(4-chloro-1-{2-[(2R,6S)-2,6-dimethylmorpholin-4-yl]ethyl}-3-methanesulfonamido-1H-indazol-7-yl)-5-methyl-4-oxo-7-(1,4,4-trifluorocyclohexyl)-3H,4H-pyrido[2,3-d]pyrimidin-2-yl]-2-(3,5-difluorophenyl)ethyl]-2-[(2S,4S)-9-cyclopropyl-7,8-diazatricyclo[4.3.0.0^2,4]nona-1(6),8-dien-7-yl]acetamide] | 0.008 | > 20 |
| Cc1cc(C2CCC(F)(F)CC2)nc2nc([C@H](Cc3cc(F)cc(F)c3)NC(=O)Cn3nc(C4CC4)c4c3C(F)(F)[C@@H]3C[C@H]43)n(-c3ccc(Cl)c4c(NS(C)(=O)=O)nn(CCN5CCOCC5)c34)c(=O)c12 (atropisomer, axis not shown; (P)) [Example 112, N-[(1S)-1-[(3P)-3-{4-chloro-3-methanesulfonamido-1-[2-(morpholin-4-yl)ethyl]-1H-indazol-7-yl}-7-(4,4-difluorocyclohexyl)-5-methyl-4-oxo-3H,4H-pyrido[2,3-d]pyrimidin-2-yl]-2-(3,5-difluorophenyl)ethyl]-2-[(2S,4R)-9-cyclopropyl-5,5-difluoro-7,8-diazatricyclo[4.3.0.0^2,^4]nona-1(6),8-dien-7-yl]acetamide] | 0.013 | > 50 |
| COCCCn1nc(NS(C)(=O)=O)c2c(Cl)ccc(-n3c([C@H](Cc4cc(F)cc(F)c4)NC(=O)Cn4nc(C(F)(F)F)c5c4C(F)(F)[C@@H]4C[C@H]54)nc4nc(C5CCC(F)(F)CC5)cc(C)c4c3=O)c21 (atropisomer, axis not shown; (P)) [Example 89, N-[(1S)-1-[(3P)-3-[4-chloro-3-methanesulfonamido-1-(3-methoxypropyl)-1H-indazol-7-yl]-7-(4,4-difluorocyclohexyl)-5-methyl-4-oxo-3H,4H-pyrido[2,3-d]pyrimidin-2-yl]-2-(3,5-difluorophenyl)ethyl]-2-[(2S,4R)-5,5-difluoro-9-(trifluoromethyl)-7,8-diazatricyclo[4.3.0.0^2,^4]nona-1(6),8-dien-7-yl]acetamide] | 0.014 | > 50 |
| COCCCn1nc(NS(C)(=O)=O)c2c(Cl)ccc(-n3c([C@H](Cc4cc(F)cc(F)c4)NC(=O)Cn4nc(C(F)F)c5c4C(F)(F)[C@@H]4C[C@H]54)nc4nc(C5CCC(F)(F)CC5)cc(NCCC5CCCCO5)c4c3=O)c21 (stereo partly drawn) [Example 563, N-[(1S)-1-[(3P)-3-[4-chloro-3-methanesulfonamido-1-(3-methoxypropyl)-1H-indazol-7-yl]-7-(4,4-difluorocyclohexyl)-5-{[2-(oxan-2-yl)ethyl]amino}-4-oxo-3H,4H-pyrido[2,3-d]pyrimidin-2-yl]-2-(3,5-difluorophenyl)ethyl]-2-[(2S,4R)-9-(difluoromethyl)-5,5-difluoro-7,8-diazatricyclo[4.3.0.0^2,^4]nona-1(6),8-dien-7-yl]acetamide] | 0.019 | > 20 |
| CS(=O)(=O)Nc1nn(CCN2CCC(F)(F)C2)c2c(-n3c([C@H](Cc4cc(F)cc(F)c4)NC(=O)Cn4nc(C(F)F)c5c4C(F)(F)[C@@H]4C[C@H]54)nc4nc(C5CCC(F)(F)CC5)ccc4c3=O)ccc(Cl)c12 (atropisomer, axis not shown; (P)) [Example 158, N-[(1S)-1-[(3P)-3-{4-chloro-1-[2-(3,3-difluoropyrrolidin-1-yl)ethyl]-3-methanesulfonamido-1H-indazol-7-yl}-7-(4,4-difluorocyclohexyl)-4-oxo-3H,4H-pyrido[2,3-d]pyrimidin-2-yl]-2-(3,5-difluorophenyl)ethyl]-2-[(2S,4R)-9-(difluoromethyl)-5,5-difluoro-7,8-diazatricyclo[4.3.0.0^2,^4]nona-1(6),8-dien-7-yl]acetamide] | 0.011 | > 50 |
| Cc1cc(C2CCC(F)(F)CC2)nc2nc([C@H](Cc3cc(F)cc(F)c3)NC(=O)Cn3nc(C4CC4)c4c3C[C@@H]3C[C@H]43)n(-c3ccc(Cl)c4c(NS(C)(=O)=O)nn(CCN5CC(C(F)F)C5)c34)c(=O)c12 (atropisomer, axis not shown; (P)) [Example 275] | 0.012 | > 50 |
| Cc1cc(C2(F)CCC(F)(F)CC2)nc2nc([C@H](Cc3cc(F)cc(F)c3)NC(=O)Cn3nc(C4CC4)c4c3C[C@@H]3C[C@H]43)n(-c3ccc(Cl)c4c(NS(C)(=O)=O)nn(C[C@@H](C)N5C[C@@H](C)O[C@@H](C)C5)c34)c(=O)c12 (relative stereo) [Example 723, N-[(1S)-1-[(3P)-3-{4-chloro-1-[(2R)-2-[(2R,6S)-2,6-dimethylmorpholin-4-yl]propyl]-3-methanesulfonamido-1H-indazol-7-yl}-5-methyl-4-oxo-7-(1,4,4-trifluorocyclohexyl)-3H,4H-pyrido[2,3-d]pyrimidin-2-yl]-2-(3,5-difluorophenyl)ethyl]-2-[(2R*,4R*)-9-cyclopropyl-7,8-diazatricyclo[4.3.0.0^2,^4]nona-1(6),8-dien-7-yl]acetamide] | 0.012 | > 20 |
